Measurements as given in ChEMBL document CHEMBL1144255, “A non-crosslinking platinum-acridine hybrid agent shows enhanced cytotoxicity compared to clinical BCNU and cisplatin in glioblastoma cells” (Bioorg Med Chem Lett, 2005).

Columns and labels:
[1] = In vitro inhibitory concentration against growth of SNB19 glioblastoma cell line in clonogenic survival assay after 24 hr; type: functional, cell-based, Homo sapiens
U-87 MG = assay: In vitro inhibitory concentration against growth of U87MG glioblastoma cell line in clonogenic survival assay after 24 hr; type: functional, cell-based, Homo sapiens, U-87MG ATCC
[2] = Homo sapiens, Glioblastoma, 24 h

| Molecule | IC50 ([1]; glioblastoma) [nM] | IC50 (U-87 MG; u-87mg atcc) [nM] | IC50 [1, 2] [nM] | IC50 (U-87 MG; Homo sapiens, U-87 MG, 24 h) [nM] |
| --- | --- | --- | --- | --- |
| CISPLATIN | 810 | 490 |  |  |
| O=NN(CCCl)C(=O)NCCCl [CARMUSTINE] |  |  | 2370 | 1420 |
| CNC(=S)N(C)CCNc1c2ccccc2nc2ccccc12 |  |  | 2460 | 1830 |
